Source: US20050164913A1, “Disinfecting composition” (Veckis Industries Ltd., priority 2002, published 2005)

What was measured:
Type in all cases: cell-based
[1] = tested on: E. coli (strain 1257); experiment: Antimicrobial activity of samples: death time of test-microorganism E. coli
[2] = tested on: Staphylococcus aureus (strain 906); experiment: Antimicrobial activity of samples: death time of test-microorganism Staphylococcus aureus
[3] = tested on: Bacillus cereus (strain 96); experiment: Antimicrobial activity of samples: death time of test-microorganism Bacillus cereus; conditions: sample concentration 5.0 %
[4] = statement of the text on Table 1

Molecule | Death time of test-microorganisms (min) E. coli ([1]; sample concentration 0.1 %) [min] | Death time of test-microorganisms (min) E. coli ([1]; sample concentration 5.0 %) [min] | Death time of test-microorganisms (min) Staphylococcus aureus ([2]; sample concentration 0.1 %) [min] | Death time of test-microorganisms (min) Staphylococcus aureus ([2]; sample concentration 5.0 %) [min] | Death time of test-microorganisms (min) Bacillus cereus [3] [min] | Death time of test-microorganisms (min) E. coli ([1]; sample concentration 0.2 %) [min] | Death time of test-microorganisms (min) E. coli ([1]; sample concentration 0.5 %) [min] | Antibacterial action in words towards gram negative bacteria (vegetative forms) [1, 4] | Death time of test-microorganisms (min) Staphylococcus aureus ([2]; sample concentration 0.2 %) [min] | Death time of test-microorganisms (min) Staphylococcus aureus ([2]; sample concentration 0.5 %) [min] | Antibacterial action in words towards gram positive bacteria (vegetative forms) [2, 4]
O=C(O)CN(CCN(CC(=O)O)CC(=O)O)CC(=O)O.[Zn] [Ethylenediaminotetraacetate zinc complex] | >30 | >30 | >30 | >30 |  |  |  |  |  |  | 
Monoglycinatecopper chloride complex | >30 |  | >30 | >30 | >360 | 30 | 15 | high enough efficacy | >30 | >30 | high enough efficacy
